pIC50: −log10 of the molar value.
Columns and labels:
human ADAMTS-5 = human ADAMTS-5 (Homo sapiens (Human), UniProt Q9UNA0); test: hADAMTS-5 TBIS-1 cleavage assay, Protocol 3; format: biochemical; details: 90 min at 37° C., read-out: hADAMTS-5 potency IC50
Procedure: The reaction is initiated by adding to the assay plate TBIS-1 (10 μL, 4.5 μM, Anaspec) in the same buffer.
Finally, the fluorescence is read on the Envision (Perkin Elmer) after an incubation of 90 min at 37° C. (Excitation 485 nm, emission 530).

human ADAMTS6 = human ADAMTS6 (Homo sapiens (Human), UniProt Q9UKP5); test: hADAMTS-6 fluorescent based protease assay (520 MMP FRET substrate XII); format: biochemical; details: 37° C. for 2 h; read-out: hADAMTS-6 potency IC50
Procedure: The IC50 value for test compounds can be determined in a fluorescent based protease assay.
The substrate contains sequence Arg-Pro-Lys-Pro-Tyr-Ala-Nva-Trp-Met-Lys (SEQ ID NO: 7) with attached a fluorescent probe and a quencher. Without ADAMTS6, the emission of the probe is quenched. If the substrate is cleaved by ADAMTS6, the emission of the probe is not quenched anymore. Inhibition of ADAMTS6 activity, will result in a decrease of the signal.
To perform the assay, 4 μL of a dilution series of compound in water, starting from 20 μM highest concentration, ⅕ dilution, is added to the wells. 2 ng ADAMTS6 enzyme is diluted in 25 mM Tris pH8.0, 0.05% CHAPS, 2.5 mM CaCl2 in a total volume of 26 μL (final concentration 0.73 nM). The reaction is started by addition of 10 μL of 1 μM 520 MMP FRET Substrate XII (final concentration, diluted in same buffer as described above) and the mixture is incubated at 37° C. for 2 h. […] After this incubation, cleavage of the substrate is measured using the Envision (Perkin Elmer, exc485/em530).

human ADAMTS-5, sequence (Q9UNA0 262-930): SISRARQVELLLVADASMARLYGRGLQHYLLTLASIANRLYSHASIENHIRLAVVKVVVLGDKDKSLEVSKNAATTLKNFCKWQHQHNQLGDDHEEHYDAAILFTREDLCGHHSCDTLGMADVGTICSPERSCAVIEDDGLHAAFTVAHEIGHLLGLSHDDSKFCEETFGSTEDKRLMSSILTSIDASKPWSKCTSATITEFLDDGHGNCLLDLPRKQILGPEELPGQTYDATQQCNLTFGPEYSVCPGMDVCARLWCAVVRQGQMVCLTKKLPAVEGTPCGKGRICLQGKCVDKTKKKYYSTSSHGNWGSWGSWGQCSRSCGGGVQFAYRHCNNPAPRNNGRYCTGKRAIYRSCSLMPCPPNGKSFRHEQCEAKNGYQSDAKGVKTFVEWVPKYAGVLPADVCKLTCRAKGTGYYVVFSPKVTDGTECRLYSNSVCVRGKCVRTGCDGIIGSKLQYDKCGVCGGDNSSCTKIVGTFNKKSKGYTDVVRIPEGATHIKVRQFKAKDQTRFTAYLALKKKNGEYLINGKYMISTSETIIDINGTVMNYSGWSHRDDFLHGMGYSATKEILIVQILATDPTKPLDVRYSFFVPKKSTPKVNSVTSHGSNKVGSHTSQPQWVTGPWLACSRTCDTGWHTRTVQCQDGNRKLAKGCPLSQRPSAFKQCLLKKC
human ADAMTS6, sequence (Q9UKP5 other isoform, or with tags, fused parts or gaps): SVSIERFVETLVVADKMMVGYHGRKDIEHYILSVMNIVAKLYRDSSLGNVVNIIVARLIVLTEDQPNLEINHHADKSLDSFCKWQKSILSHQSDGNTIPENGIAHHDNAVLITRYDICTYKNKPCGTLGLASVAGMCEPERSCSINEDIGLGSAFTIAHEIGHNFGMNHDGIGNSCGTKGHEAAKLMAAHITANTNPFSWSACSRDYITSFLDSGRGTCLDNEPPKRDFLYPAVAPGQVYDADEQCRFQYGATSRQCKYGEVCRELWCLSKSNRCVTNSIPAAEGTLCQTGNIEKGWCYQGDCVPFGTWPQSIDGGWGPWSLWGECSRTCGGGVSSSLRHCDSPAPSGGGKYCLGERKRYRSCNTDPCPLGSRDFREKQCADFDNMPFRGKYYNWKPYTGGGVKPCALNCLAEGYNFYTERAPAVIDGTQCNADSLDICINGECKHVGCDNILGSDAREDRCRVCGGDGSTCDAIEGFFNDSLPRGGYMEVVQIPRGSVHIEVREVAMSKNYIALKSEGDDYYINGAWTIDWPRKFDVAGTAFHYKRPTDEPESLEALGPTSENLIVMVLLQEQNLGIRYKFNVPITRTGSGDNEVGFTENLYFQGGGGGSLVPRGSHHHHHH

SMILES | pIC50 (human ADAMTS-5) | pIC50 (human ADAMTS6)
COc1cc(N2CCN(C(=O)[C@@H](C)C[C@@]3(C)NC(=O)NC3=O)C[C@@H]2C)c(C)cc1Cl (mixture of isomers) [Cpd 45, 5-[3-[(3S)-4-(4-chloro-5-methoxy-2-methyl-phenyl)-3-methyl-piperazin-1-yl]-2-methyl-3-oxo-propyl]-5-methyl-imidazolidine-2,4-dione] | < 7.00 | < 7.00
COC[C@]1(C[C@H](C)C(=O)N2CCN(c3cc(C)c(Cl)c(OC)c3)[C@@H](C)C2)NC(=O)NC1=O (mixture of isomers) [Cpd 126, 5-[3-[(3S)-4-(4-chloro-3-methoxy-5-methyl-phenyl)-3-methyl-piperazin-1-yl]-2-methyl-3-oxo-propyl]-5-(methoxymethyl)imidazolidine-2,4-dione] | 7.30 to 7.60 | 7.60 to 12.00
COc1cc(N2CCN(C(=O)[C@@H](C)C[C@@]3(C)NC(=O)NC3=O)C[C@@H]2C)cc(OC)c1Cl (stereo in doubt) [Cpd 44, 5-[3-[(3S)-4-(4-chloro-3,5-dimethoxy-phenyl)-3-methyl-piperazin-1-yl]-2-methyl-3-oxo-propyl]-5-methyl-imidazolidine-2,4-dione] | 7.00 to 7.30 | 7.60 to 12.00
COc1cc(N2CCN(C(=O)[C@H](C)C[C@@]3(C4CC4)NC(=O)NC3=O)C[C@@H]2C)cc(F)c1F (stereo in doubt) [Cpd 134, 5-cyclopropyl-5-[3-[(3S)-4-(3,4-difluoro-5-methoxy-phenyl)-3-methyl-piperazin-1-yl]-2-methyl-3-oxo-propyl]imidazolidine-2,4-dione] | < 7.00 | 7.00 to 7.30
COc1ccc(C)c(N2CCN(C(=O)CCC3(C)NC(=O)NC3=O)CC2)c1 (stereo not drawn) [Cpd 32, 5-[3-[4-(5-methoxy-2-methyl-phenyl)piperazin-1-yl]-3-oxo-propyl]-5-methyl-imidazolidine-2,4-dione] | < 7.00 | < 7.00
COc1cccc(N2CCN(C(=O)CCC3(C)NC(=O)NC3=O)CC2)c1C (stereo not drawn) [Cpd 33, 5-[3-[4-(3-methoxy-2-methyl-phenyl)piperazin-1-yl]-3-oxo-propyl]-5-methyl-imidazolidine-2,4-dione] | < 7.00 | < 7.00
COc1ccc(C)c(N2CCN(C(=O)CCC3(C)NC(=O)NC3=O)C[C@@H]2C)c1 (stereo partly drawn) [Cpd 35, 5-[3-[(3S)-4-(5-methoxy-2-methyl-phenyl)-3-methyl-piperazin-1-yl]-3-oxo-propyl]-5-methyl-imidazolidine-2,4-dione] | < 7.00 | < 7.00
COc1cc(N2CCN(C(=O)CC[C@@]3(C)NC(=O)NC3=O)CC2)c(C)cc1F [Cpd 67, (5R)-5-[3-[4-(4-fluoro-5-methoxy-2-methyl-phenyl)piperazin-1-yl]-3-oxo-propyl]-5-methyl-imidazolidine-2,4-dione] |  | 7.00 to 7.30
COc1c(Cl)cccc1N1CCN(C(=O)CC[C@@]2(C)NC(=O)NC2=O)CC1 [Cpd 68, (5R)-5-[3-[4-(3-chloro-2-methoxy-phenyl)piperazin-1-yl]-3-oxo-propyl]-5-methyl-imidazolidine-2,4-dione] |  | < 7.00
CCc1cc(CC)cc(N2CCN(C(=O)CC[C@@]3(C)NC(=O)NC3=O)CC2)c1 [Cpd 72, (5R)-5-[3-[4-(3,5-diethylphenyl)piperazin-1-yl]-3-oxo-propyl]-5-methyl-imidazolidine-2,4-dione] |  | < 7.00
COc1ccc(Cl)cc1N1CCN(C(=O)CC[C@@]2(C)NC(=O)NC2=O)CC1 [Cpd 77, (5R)-5-[3-[4-(5-chloro-2-methoxy-phenyl)piperazin-1-yl]-3-oxo-propyl]-5-methyl-imidazolidine-2,4-dione] |  | < 7.00
COc1cc(F)ccc1N1CCN(C(=O)CC[C@@]2(C)NC(=O)NC2=O)C[C@@H]1C [Cpd 81, (5R)-5-[3-[(3 S)-4-(4-fluoro-2-methoxy-phenyl)-3-methyl-piperazin-1-yl]-3-oxo-propyl]-5-methyl-imidazolidine-2,4-dione] |  | < 7.00
COc1c(F)cccc1N1CCN(C(=O)CC[C@@]2(C)NC(=O)NC2=O)CC1 [Cpd 82, (5R)-5-[3-[4-(3-fluoro-2-methoxy-phenyl)piperazin-1-yl]-3-oxo-propyl]-5-methyl-imidazolidine-2,4-dione] |  | < 7.00
COc1ccc(F)cc1N1CCN(C(=O)CC[C@@]2(C)NC(=O)NC2=O)CC1 [Cpd 83, (5R)-5-[3-[4-(5-fluoro-2-methoxy-phenyl)piperazin-1-yl]-3-oxo-propyl]-5-methyl-imidazolidine-2,4-dione] |  | < 7.00
COc1c(F)cccc1N1CCN(C(=O)CC[C@@]2(C)NC(=O)NC2=O)C[C@@H]1C [Cpd 84, (5R)-5-[3-[(3 S)-4-(3-fluoro-2-methoxy-phenyl)-3-methyl-piperazin-1-yl]-3-oxo-propyl]-5-methyl-imidazolidine-2,4-dione] |  | < 7.00
CC(C)c1cc(N2CCN(C(=O)CC[C@@]3(C)NC(=O)NC3=O)CC2)ccc1Cl [Cpd 87, (5R)-5-[3-[4-(4-chloro-3-isopropyl-phenyl)piperazin-1-yl]-3-oxo-propyl]-5-methyl-imidazolidine-2,4-dione] |  | 7.00 to 7.30
C[C@]1(CCC(=O)N2CCN(c3ccc(Cl)c(OC(F)(F)F)c3)CC2)NC(=O)NC1=O [Cpd 88, (5R)-5-[3-[4-[4-chloro-3-(trifluoromethoxy)phenyl]piperazin-1-yl]-3-oxo-propyl]-5-methyl-imidazolidine-2,4-dione] |  | 7.30 to 7.60
COc1cc(Cl)c(Cl)cc1N1CCN(C(=O)CC[C@@]2(C)NC(=O)NC2=O)C[C@@H]1C [Cpd 92, (5R)-5-[3-[(3 S)-4-(4,5-dichloro-2-methoxy-phenyl)-3-methyl-piperazin-1-yl]-3-oxo-propyl]-5-methyl-imidazolidine-2,4-dione] |  | 7.60 to 12.00
COc1cc(N2CCN(C(=O)CC[C@@]3(C)NC(=O)NC3=O)CC2)c(OC)cc1Cl [Cpd 97, (5R)-5-[3-[4-(4-chloro-2,5-dimethoxy-phenyl)piperazin-1-yl]-3-oxo-propyl]-5-methyl-imidazolidine-2,4-dione] |  | 7.30 to 7.60
CCc1cc(N2CCN(C(=O)CCC3(CC(=O)O)NC(=O)NC3=O)C[C@@H]2C)ccc1Cl (stereo partly drawn) [Cpd 98, 2-[4-[3-[(3 S)-4-(4-chloro-3-ethyl-phenyl)-3-methyl-piperazin-1-yl]-3-oxo-propyl]-2,5-dioxo-imidazolidin-4-yl]acetic acid] |  | 7.60 to 12.00
CCc1cc(N2CCN(C(=O)CCC3(c4cccc(C)n4)NC(=O)NC3=O)C[C@@H]2C)ccc1Cl (stereo partly drawn) [Cpd 100, 5-[3-[(3 S)-4-(4-chloro-3-ethyl-phenyl)-3-methyl-piperazin-1-yl]-3-oxo-propyl]-5-(6-methyl-2-pyridyl)imidazolidine-2,4-dione] |  | 7.60 to 12.00
Cc1cccc(C2(CCC(=O)N3CCN(c4ccc(Cl)c(OC(F)(F)F)c4)[C@@H](C)C3)NC(=O)NC2=O)n1 (stereo partly drawn) [Cpd 101, 5-[3-[(3 S)-4-[4-chloro-3-(trifluoromethoxy)phenyl]-3-methyl-piperazin-1-yl]-3-oxo-propyl]-5-(6-methyl-2-pyridyl)imidazolidine-2,4-dione] |  | 7.60 to 12.00
CCc1cc(N2CCN(C(=O)CC[C@@]3(C)NC(=O)NC3=O)CC2)c(OC)cc1Cl [Cpd 102, (5R)-5-[3-[4-(4-chloro-5-ethyl-2-methoxy-phenyl)piperazin-1-yl]-3-oxo-propyl]-5-methyl-imidazolidine-2,4-dione] |  | < 7.00
CCc1cc(N2CCN(C(=O)CC[C@@]3(C)NC(=O)NC3=O)C[C@@H]2C)c(OC)cc1Cl [Cpd 103, (5R)-5-[3-[(3 S)-4-(4-chloro-5-ethyl-2-methoxy-phenyl)-3-methyl-piperazin-1-yl]-3-oxo-propyl]-5-methyl-imidazolidine-2,4-dione] |  | < 7.00
COc1cc(N2CCN(C(=O)CC[C@@]3(C)NC(=O)NC3=O)C[C@@H]2C)c(OC)cc1Cl [Cpd 104, (5R)-5-[3-[(3 S)-4-(4-chloro-2,5-dimethoxy-phenyl)-3-methyl-piperazin-1-yl]-3-oxo-propyl]-5-methyl-imidazolidine-2,4-dione] |  | 7.60 to 12.00
COc1ccc(OC(F)(F)F)c(N2CCN(C(=O)CC[C@@]3(C)NC(=O)NC3=O)C[C@@H]2C)c1 [Cpd 108, (5R)-5-[3-[(3S)-4-[5-methoxy-2-(trifluoromethoxy)phenyl]-3-methyl-piperazin-1-yl]-3-oxo-propyl]-5-methyl-imidazolidine-2,4-dione] |  | < 7.00
COc1cc(N2CCN(C(=O)CC[C@@]3(C)NC(=O)NC3=O)C[C@@H]2C)cc(OC)c1Cl [Cpd 110, (5R)-5-[3-[(3 S)-4-(4-chloro-3,5-dimethoxy-phenyl)-3-methyl-piperazin-1-yl]-3-oxo-propyl]-5-methyl-imidazolidine-2,4-dione] | < 7.00 | 7.60 to 12.00
CCOc1cc(N2CCN(C(=O)CC[C@@]3(C)NC(=O)NC3=O)C[C@@H]2C)ccc1Cl [Cpd 111, (5R)-5-[3-[(3 S)-4-(4-chloro-3-ethoxy-phenyl)-3-methyl-piperazin-1-yl]-3-oxo-propyl]-5-methyl-imidazolidine-2,4-dione] | < 7.00 | 7.60 to 12.00
COc1cc(F)c(F)cc1N1CCN(C(=O)CC[C@@]2(C)NC(=O)NC2=O)C[C@@H]1C [Cpd 113, (5R)-5-[3-[(3 S)-4-(4,5-difluoro-2-methoxy-phenyl)-3-methyl-piperazin-1-yl]-3-oxo-propyl]-5-methyl-imidazolidine-2,4-dione] | < 7.00 | < 7.00
